Calls of active or inactive are those of the source. The rule behind the calls is not given here.
Assays:
[1] = molecular target: T1, Aldehyde dehydrogenase 1A1 (Homo sapiens, UniProt P00352); experiment: Inhibition of ALDH1A1 (unknown origin); assay type: single protein
T1 sequence (P00352 whole entry): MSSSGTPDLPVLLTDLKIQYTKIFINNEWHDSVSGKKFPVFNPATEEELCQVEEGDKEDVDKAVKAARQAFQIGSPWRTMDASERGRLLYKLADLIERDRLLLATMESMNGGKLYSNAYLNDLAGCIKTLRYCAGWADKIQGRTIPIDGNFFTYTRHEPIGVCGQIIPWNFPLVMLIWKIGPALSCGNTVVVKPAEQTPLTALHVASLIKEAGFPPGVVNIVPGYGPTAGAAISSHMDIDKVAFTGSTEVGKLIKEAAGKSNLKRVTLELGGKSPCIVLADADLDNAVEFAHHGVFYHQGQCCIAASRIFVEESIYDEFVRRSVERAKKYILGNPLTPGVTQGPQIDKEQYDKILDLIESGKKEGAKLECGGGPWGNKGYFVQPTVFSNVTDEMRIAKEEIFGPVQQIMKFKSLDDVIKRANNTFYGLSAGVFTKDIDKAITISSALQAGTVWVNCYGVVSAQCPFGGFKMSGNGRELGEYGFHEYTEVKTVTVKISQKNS

[2] = molecular target: T2, Aldehyde dehydrogenase, mitochondrial (Homo sapiens, UniProt P05091); experiment: Inhibition of ALDH2 (unknown origin); assay type: single protein
T2 sequence (P05091 whole entry): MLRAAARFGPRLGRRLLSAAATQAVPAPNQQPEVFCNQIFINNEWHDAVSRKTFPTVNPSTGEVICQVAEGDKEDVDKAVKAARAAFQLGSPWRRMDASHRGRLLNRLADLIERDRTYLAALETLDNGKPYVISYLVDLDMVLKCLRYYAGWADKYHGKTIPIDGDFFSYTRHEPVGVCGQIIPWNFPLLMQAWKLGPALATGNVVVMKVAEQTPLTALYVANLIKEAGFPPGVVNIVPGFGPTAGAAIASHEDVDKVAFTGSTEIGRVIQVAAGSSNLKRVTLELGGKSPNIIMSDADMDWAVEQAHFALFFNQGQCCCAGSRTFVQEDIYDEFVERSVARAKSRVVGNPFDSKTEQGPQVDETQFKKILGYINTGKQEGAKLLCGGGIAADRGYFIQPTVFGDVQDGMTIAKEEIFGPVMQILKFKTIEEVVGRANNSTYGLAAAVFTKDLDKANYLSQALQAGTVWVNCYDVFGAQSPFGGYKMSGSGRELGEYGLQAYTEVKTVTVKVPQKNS

[3] = molecular target: T3, Aldehyde dehydrogenase 1A1 (Homo sapiens) (UniProt P00352); experiment: Inhibition of ALDH1A1 (unknown origin) in presence of dithiothreitol
T3 sequence (whole entry): T1 sequence (P00352 whole entry)

Row | SMILES | IC50 ([1]; read-out: IC50) | IC50 ([2]; read-out: IC50) | IC50 [2] | IC50 [1] | inhibition [3]
1 | S=C(SSC(=S)N(Cc1ccccc1)Cc1ccccc1)N(Cc1ccccc1)Cc1ccccc1 [BIS(DIBENZYLAMINETHIOCARBONYL)DISULFIDE] | > 100000 nM |  | Not Active |  | 
2 | S=C(SSC(=S)N1CCCCC1)N1CCCCC1 [BIS(PIPERIDINYLTHIOCARBONYL)DISULFIDE] | 50 nM | 1510 nM |  |  | 
3 | Cl.NCCS [CYSTEAMINE HYDROCHLORIDE] |  |  | Not Active | Not Active | 
4 | CC(=O)NC(CS)C(=O)O (single isomer, unassigned) |  |  | Not Active | Not Active | 
5 | Cl.Cl.NCCSSCCN [CYSTAMINE DIHYDROCHLORIDE] | > 100000 nM |  | Not Active |  | 
6 | CCN(Cc1ccc(F)cc1)C(=S)SSC(=S)N(CC)Cc1ccc(F)cc1 |  |  | Not Active |  | inactive
7 | CCN(Cc1ccc(O)cc1)C(=S)SSC(=S)N(CC)Cc1ccc(O)cc1 | 210 nM | 10900 nM |  |  | inactive
8 | CCN(Cc1ccccc1)C(=S)SSC(=S)N(CC)Cc1ccccc1 | 270 nM |  | Not Active |  | inactive

Now from value to compound:

Row | IC50 ([1]; read-out: IC50) | IC50 ([2]; read-out: IC50) | IC50 [2] | IC50 [1] | inhibition [3] | SMILES
9 | 2950 nM | 99400 nM |  |  |  | CCN(Cc1ccc(C(=O)O)cc1)C(=S)SSC(=S)N(CC)Cc1ccc(C(=O)O)cc1
10 | > 100000 nM |  | Not Active |  |  | CC(C)CN(CC(C)C)C(=S)SSC(=S)N(CC(C)C)CC(C)C
11 | 2850 nM | > 100000 nM |  |  |  | CC(C)N(C(=S)SSC(=S)N(C)C)C(C)C
12 |  |  |  |  | inactive | CCN(CC)C(=S)SSC(=S)N(CC)CC
13 | 5610 nM | 72600 nM |  |  |  | CCCCN(CCCC)C(=S)SSC(=S)N(CCCC)CCCC
14 | 40 nM | 1430 nM |  |  |  | S=C(SSC(=S)N1CCOCC1)N1CCOCC1
